biological target: T1, glucosylceramide synthase (Homo sapiens, UniProt Q16739); assay: Glucosylceramide synthase (GCS) enzyme assay, microsome fraction, C8 glucosylceramide quantified by Rapidfire MS/MS; type: biochemical; conditions: test compound 10 μM; 1.7 μM UDP-glucose, 3 μM C8 ceramide; room temperature 60 min
T1 construct: made in house; host or cells: Expi293F cells (transient expression, pcDNA3.3-TOPO vector); microsome fraction used as enzyme source
T1 sequence (Q16739 1-394): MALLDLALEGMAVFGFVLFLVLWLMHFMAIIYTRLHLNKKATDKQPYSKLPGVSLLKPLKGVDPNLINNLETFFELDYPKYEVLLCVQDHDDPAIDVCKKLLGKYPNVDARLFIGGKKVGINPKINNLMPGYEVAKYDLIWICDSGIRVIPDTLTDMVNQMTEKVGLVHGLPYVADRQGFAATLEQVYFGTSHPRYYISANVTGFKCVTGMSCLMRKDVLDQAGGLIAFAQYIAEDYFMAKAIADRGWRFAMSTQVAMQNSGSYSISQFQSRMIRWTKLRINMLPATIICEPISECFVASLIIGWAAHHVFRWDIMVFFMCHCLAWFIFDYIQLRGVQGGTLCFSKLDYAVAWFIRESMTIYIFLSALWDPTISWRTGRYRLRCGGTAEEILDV
In short: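 Test compound, 10 μM final, was run against human GCS from transfected Expi293F microsome fractions, using substrate solution of 6 μM C8 ceramide (in DOPC liposomes) plus 3.4 μM UDP-glucose, pH 7.5 Tris buffer, 60 min, room temperature. Product C8 glucosylceramide measured by Rapidfire MS/MS against an internal standard, % inhibition referenced to no-enzyme and DMSO wells.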

For `O=C1c2ccnc(-c3ccc(F)cc3OCC(F)(F)F)c2CN1c1ccc(C(O)C(F)F)cc1` (single isomer, unassigned) [Example 279, (R or S)-2-[4-(2,2-difluoro-1-hydroxyethyl)phenyl]-4-[4-fluoro-2-(2,2,2-trifluoroethoxy)phenyl]-2,3-dihydro-1H-pyrrolo[3,4-c]pyridin-1-one], the “GCS enzyme inhibitory rate at 10 μM (%) (% of control)” value was 99%.

same assay, conditions: test compound 10 μM; 1.7 μM UDP-glucose, 3 μM C8 ceramide; room temperature 60 min; read-out: GCS enzyme inhibitory rate at 10 μM (%) (% of control)

Compared with `COc1ccccc1-c1nccc2c1CN(c1ccc(C3CC3)cc1)C2=O` [Example 4, 2-(4-cyclopropylphenyl)-4-(2-methoxyphenyl)-2,3-dihydro-1H-pyrrolo[3,4-c]pyridin-1-one], `COc1ccccc1-c1nccc2c1CN(c1ccc(C(F)(F)F)cc1)C2=O` [Example 6, 4-(2-methoxyphenyl)-2-[4-(trifluoromethyl)phenyl]-2,3-dihydro-1H-pyrrolo[3,4-c]pyridin-1-one] is lower in inhibition at 10 µM: 99% for the first, 95% for the second.

Going from `O=C1c2ccnc(-c3ccc(F)cc3OCC(F)(F)F)c2CN1c1cnn(CC(F)(F)F)c1` [Example 83, 4-[4-fluoro-2-(2,2,2-trifluoroethoxy)phenyl]-2-[1-(2,2,2-trifluoroethyl)-1H-pyrazol-4-yl]-2,3-dihydro-1H-pyrrolo[3,4-c]pyridin-1-one] to `O=C1c2ccnc(-c3ccc(F)cc3OCC(F)(F)F)c2CN1c1cnn(CC2CC2)c1` [Example 153, 2-[1-(cyclopropylmethyl)-1H-pyrazol-4-yl]-4-[4-fluoro-2-(2,2,2-trifluoroethoxy)phenyl]-2,3-dihydro-1H-pyrrolo[3,4-c]pyridin-1-one], the inhibition at 10 µM rises from 91% to 98%.

Going from `O=C1c2ccnc(-c3ccc(F)cc3OCC(F)(F)F)c2CN1c1ccc(C2(O)CCOCC2)c(F)c1` [Example 219, 2-[3-fluoro-4-(4-hydroxyoxan-4-yl)phenyl]-4-[4-fluoro-2-(2,2,2-trifluoroethoxy)phenyl]-2,3-dihydro-1H-pyrrolo[3,4-c]pyridin-1-one] to `O=C1c2ccnc(-c3ccc(F)cc3OCC(F)(F)F)c2CN1c1ccc(O[C@@H]2CCOC2)cc1` [Example 164, 4-[4-fluoro-2-(2,2,2-trifluoroethoxy)phenyl]-2-(4-{[(3R)-oxolan-3-yl]oxy}phenyl)-2,3-dihydro-1H-pyrrolo[3,4-c]pyridin-1-one], the inhibition at 10 µM rises from 98% to 99%.

Compared with `O=C1c2ccnc(-c3ccccc3OCC(F)(F)F)c2CN1c1ccc(C(O)C(F)(F)F)nc1` (single isomer, unassigned) [Example 276, (R or S)-4-[2-(2,2,2-trifluoroethoxy)phenyl]-2-[6-(2,2,2-trifluoro-1-hydroxyethyl)pyridin-3-yl]-2,3-dihydro-1H-pyrrolo[3,4-c]pyridin-1-one], `O=C1c2ccnc(-c3ccccc3OCC(F)(F)F)c2CN1c1ccc(OC(F)F)cn1` [Example 54, 2-[5-(difluoromethoxy)pyridin-2-yl]-4-[2-(2,2,2-trifluoroethoxy)phenyl]-2,3-dihydro-1H-pyrrolo[3,4-c]pyridin-1-one] is higher in inhibition at 10 µM: 98% for the first, 100% for the second.

Going from `O=C1c2ccnc(-c3ccc(F)cc3OCC(F)(F)F)c2CN1c1ccc(OC(F)(F)F)cn1` [Example 58, 4-[4-fluoro-2-(2,2,2-trifluoroethoxy)phenyl]-2-[5-(trifluoromethoxy)pyridin-2-yl]-2,3-dihydro-1H-pyrrolo[3,4-c]pyridin-1-one] to `CC(C)(O)COc1ccc(N2Cc3c(ccnc3-c3ccc(F)cc3OCC(F)(F)F)C2=O)nc1` [Example 255, 4-[4-fluoro-2-(2,2,2-trifluoroethoxy)phenyl]-2-[5-(2-hydroxy-2-methylpropoxy)pyridin-2-yl]-2,3-dihydro-1H-pyrrolo[3,4-c]pyridin-1-one], the inhibition at 10 µM rises from 96% to 100%.

Compared with `O=C1c2ccnc(-c3ccccc3OCC(F)(F)F)c2CN1c1ccc(C2(O)CC(O)C2)cc1` (stereo not drawn) [Example 228, (cis or trans)-2-[4-(1,3-dihydroxycyclobutyl)phenyl]-4-[2-(2,2,2-trifluoroethoxy)phenyl]-2,3-dihydro-1H-pyrrolo[3,4-c]pyridin-1-one], `COC1(c2ccc(N3Cc4c(ccnc4-c4ccc(F)cc4OCC(F)(F)F)C3=O)cc2)COC1` [Example 178, 4-[4-fluoro-2-(2,2,2-trifluoroethoxy)phenyl]-2-[4-(3-methoxyoxetan-3-yl)phenyl]-2,3-dihydro-1H-pyrrolo[3,4-c]pyridin-1-one] is higher in inhibition at 10 µM: 86% for the first, 98% for the second.

Compared with `CC(C)(O)c1ccc(N2Cc3c(ncnc3-c3ccccc3OCC(F)(F)F)C2=O)cc1` [Example 200, 6-[4-(2-hydroxypropan-2-yl)phenyl]-4-[2-(2,2,2-trifluoroethoxy)phenyl]-5,6-dihydro-7H-pyrrolo[3,4-d]pyrimidin-7-one], `CC(C)(O)c1ccc(N2Cc3c(cn(C(F)F)c(=O)c3-c3ccccc3OCC(F)(F)F)C2=O)cc1` [Example 368, 5-(difluoromethyl)-2-[4-(2-hydroxypropan-2-yl)phenyl]-7-[2-(2,2,2-trifluoroethoxy)phenyl]-1H-pyrrolo[3,4-c]pyridine-3,6(2H,5H)-dione] is higher in inhibition at 10 µM: 95% for the first, 100% for the second.

Compared with `CC(C)(O)c1ccc(N2Cc3c(ccnc3-c3ccc(F)cc3OCC(F)(F)F)C2=O)nc1` [Example 234, 4-[4-fluoro-2-(2,2,2-trifluoroethoxy)phenyl]-2-[5-(2-hydroxypropan-2-yl)pyridin-2-yl]-2,3-dihydro-1H-pyrrolo[3,4-c]pyridin-1-one], `Cn1cc(N2Cc3c(ccnc3-c3ccc(F)cc3OCC(F)(F)F)C2=O)cn1` [Example 81, 4-[4-fluoro-2-(2,2,2-trifluoroethoxy)phenyl]-2-(1-methyl-1H-pyrazol-4-yl)-2,3-dihydro-1H-pyrrolo[3,4-c]pyridin-1-one] is lower in inhibition at 10 µM: 99% for the first, 86% for the second.

First: O=C1c2ccnc(-c3ccc(F)cc3OCC(F)(F)F)c2CN1c1ccc(OCC2(F)COC2)cc1 [Example 194, 2-{4-[(3-fluorooxetan-3-yl)methoxy]phenyl}-4-[4-fluoro-2-(2,2,2-trifluoroethoxy)phenyl]-2,3-dihydro-1H-pyrrolo[3,4-c]pyridin-1-one]
Second: O=C1c2ccnc(-c3ccc(F)cc3OCC(F)(F)F)c2CN1c1ccc(C(O)C(F)F)cc1 (single isomer, unassigned) [Example 278, (R or S)-2-[4-(2,2-difluoro-1-hydroxyethyl)phenyl]-4-[4-fluoro-2-(2,2,2-trifluoroethoxy)phenyl]-2,3-dihydro-1H-pyrrolo[3,4-c]pyridin-1-one]
The inhibition at 10 µM of the first is lower: 98% for the first, 99% for the second.

`O=C1c2ccnc(-c3ccc(F)cc3OCC(F)(F)F)c2CN1c1ccc(C(O)(C(F)F)C(F)F)cc1` [Example 245, 4-[4-fluoro-2-(2,2,2-trifluoroethoxy)phenyl]-2-[4-(1,1,3,3-tetrafluoro-2-hydroxypropan-2-yl)phenyl]-2,3-dihydro-1H-pyrrolo[3,4-c]pyridin-1-one] and `CC(C)(C#N)c1ccc(N2Cc3c(ccnc3-c3ccc(F)cc3OCC(F)F)C2=O)cc1` [Example 303, 2-(4-{4-[2-(2,2-difluoroethoxy)-4-fluorophenyl]-1-oxo-1,3-dihydro-2H-pyrrolo[3,4-c]pyridin-2-yl}phenyl)-2-methylpropanenitrile] are the same in inhibition at 10 µM: 100% for the first, 100% for the second.

First: O=C(c1ccc(-c2nccc3c2CN(c2ccc(OC(F)F)nc2)C3=O)c(OCC(F)(F)F)c1)N1CCC1 [Example 118, 4-[4-(azetidine-1-carbonyl)-2-(2,2,2-trifluoroethoxy)phenyl]-2-[6-(difluoromethoxy)pyridin-3-yl]-2,3-dihydro-1H-pyrrolo[3,4-c]pyridin-1-one]
Second: O=C1c2ccnc(-c3ccc(F)cc3OCC(F)(F)F)c2CN1c1ncc(OC(F)F)cn1 [Example 99, 2-[5-(difluoromethoxy)pyrimidin-2-yl]-4-[4-fluoro-2-(2,2,2-trifluoroethoxy)phenyl]-2,3-dihydro-1H-pyrrolo[3,4-c]pyridin-1-one]
The inhibition at 10 µM of the first is higher: 96% for the first, 92% for the second.

Compared with `CC(C)(O)c1cc2c(c(-c3ccccc3OCC(F)F)n1)CN(c1ccc(F)cc1)C2=O` [Example 356, 4-[2-(2,2-difluoroethoxy)phenyl]-2-(4-fluorophenyl)-6-(2-hydroxypropan-2-yl)-2,3-dihydro-1H-pyrrolo [3,4-c]pyridin-1-one], `O=C1c2ccnc(-c3ccccc3OC(F)F)c2CN1c1ccc(F)cc1` [Example 28, 4-[2-(difluoromethoxy)phenyl]-2-(4-fluorophenyl)-2,3-dihydro-1H-pyrrolo[3,4-c]pyridin-1-one] is lower in inhibition at 10 µM: 99% for the first, 84% for the second.

First: O=C1CC2=C(CN(c3ccc(F)cc3)C2=O)N(c2ccc(F)cc2OCC(F)(F)F)N1 [Example 115, 6-(4-fluorophenyl)-1-[4-fluoro-2-(2,2,2-trifluoroethoxy)phenyl]-6,7-dihydro-1H-pyrrolo[3,4-c]pyridazine-3,5(2H,4H)-dione]
Second: CS(=O)(=O)c1ccc(N2Cc3cnn(-c4ccccc4OCC(F)(F)F)c3C2)cc1 [Example 207, 5-[4-(methanesulfonyl)phenyl]-1-[2-(2,2,2-trifluoroethoxy)phenyl]-1,4,5,6-tetrahydropyrrolo[3,4-c]pyrazole]
The inhibition at 10 µM of the first is lower: 65% for the first, 99% for the second.

Source: patent publication US12528802B2, “Heterocyclic compound” (Takeda Pharmaceutical Company Limited, priority 2019, dated 2026)
